We go through 3 substances from patent publication US7371734B2, “Oligonucleotide compositions and their use for the modulation of immune responses” (Bioniche Life Sciences Inc., priority 2002, dated 2008).

Type in all cases: cell-based
For data set [1], the system named is Human dendritic cells. Description: Increase in cell size and granularity of DC (flow cytometry). To be noted: 100 μg polynucleotide, 48 hours. On the procedure:
(§1) Human dendritic cells were obtained from Clonetics (San Diego, Calif., USA) and were cultured in the medium recommended by Clonetics. DC were obtained from three different individuals (see Table 1). Major histocompatability typing was performed on each of these individuals and several of the HLA (human leukocyte antigens) types are shown.
DC were seeded in 1.0 ml at 1.0×10^5 cells/ml in 6-well flat-bottomed tissue culture plates for 48 hours with 100 μg of 6 base N1A, N1B, N2A, N2B, N3A, N3B, N4A, N4B, N5A, N5B, N6A, N6B, N7A or N7B polynucleotides. Cell size (FCS: forward side scatter) and granularity (S SC: side light scatter) were determined by flow cytometry using a FACSCalibur and analyzed using the CELLQuest Pro software (both from Becton-Dickinson, San Diego, Calif., USA). Percentage of DC showing a FCS>500 units and a SSC>400 units have been determined after treatment with 3-OH, 5-OH polynucleotides for DC isolated from three different individuals.
For orientation: In flow cytometry, cells or beads pass a laser one at a time.

The test system of data set [2] is Human dendritic cells. Description: Induction of IL-1beta production by DC (ELISA). The conditions noted are these: 100 μg, 48 hours. On the procedure: as §1
DC were seeded in 1.0 ml at 1.0×10^5 cells/ml in 6-well flat-bottomed tissue culture plates for 48 hours with 100 μg of 6 base N1A, N1B, N2A, N2B, N3A, N3B, N4A, N4B, N5A, N5B, N6A, N6B, N7A or N7B polynucleotides. Production of IL-1beta was determined in 100 μl of culture supernatant using a commercial ELISA (BioSource, Camarillo, Calif., USA) after 48 hours of incubation. Results are expressed as the “fold” (x) increase in IL-1beta production by treated DC compared to control cells.
On the technique in general: ELISA stands for enzyme-linked immunosorbent assay.

In data set [3] the test system is Human dendritic cells. Description: Induction of IL-12 production by DC (ELISA). To be noted: 100 μg, 48 hours. On the procedure:
as §1
DC were seeded in 1.0 ml at 1.0×10^5 cells/ml in 6-well flat-bottomed tissue culture plates for 48 hours with 100 μg of 6 base N1A, N1B, N2A, N2B, N3A, N3B, N4A, N4B, N5A, N5B, N6A, N6B, N7A or N7B polynucleotides. Production of IL-12 was determined in 100 μl of culture supernatant using a commercial ELISA (BioSource) after 48 hours of incubation. Results are expressed as the “fold” (x) increase in IL-12 production by treated DC compared to control cells.

In data set [4] the test system is Human dendritic cells. Put plainly: Induction of IFN-gamma production by DC (ELISA). The conditions noted are these: 100 μg, 48 hours. As to the method:
as §1
DC were seeded in 1.0 ml at 1.0×10^5 cells/ml in 6-well flat-bottomed tissue culture plates for 48 hours with 100 μg of6 base N1A, N1B, N2A, N2B, N3A, N3B, N4A, N4B, N5A, N5B, N6A, N6B, N7A or N7B polynucleotides. Production of IFN-gamma was determined in 100 μl of culture supernatant using a commercial ELISA (BioSource) after 48 hours of incubation. Results are expressed as the “fold” (x) increase in IFN-gamma production by treated DC compared to control cells.

Data set [5] has as its system Human dendritic cells. Description: Induction of IL-12 by sequences plus GM-CSF (ELISA). The conditions noted are these: 100 μg, 48 hours. On the procedure: as §1
DC from the individual B were seeded in 1.0 ml at 1.0×10^5 cells/ml in 6-well flat-bottomed tissue culture plates for 48 hours with 500 units of human recombinant GM-CSF (Clonetics) and 100 μg of 6 base polynucleotide N1A or polynucleotide N7A. Production of IL-12 was determined in 100 μl of culture supernatant using a commercial ELISA (BioSource) after 48 hours of incubation. Results are expressed as the “fold” (x) increase in IL-12 production by treated DC compared to control cells in absence or presence of recombinant GM-CSF.

Data set [6] has as its system Human dendritic cells. Put plainly: CD40 levels at the DC cell surface (flow cytometry). To be noted: 100 μg, 48 hours. As to the method:
as §1
DC from individuals B and C were seeded in 1.0 ml at 1.0×10^5 cells/ml in 6-well flat-bottomed tissue culture plates for 48 hours with 100 μg of 6 base N1A, N1B, N2A, N2B, N3A, N3B, N4A, N4B, N5A, N5B, N6A, N6B, N7A or N7B polynucleotides. The level of CD40 at the cell surface was determined after 48 hours of incubation by flow cytometry (FACSCalibur system) using a FITC-conjugated monoclonal antibody directed to CD40 and analyzed by CELLQuest Pro (all from Becton Dickinson). Results are expressed as the percentage of CD40^hi DC following treatment. The term “CD40^hi” refers to a population of cells identified by flow cytometry as having higher than baseline expression of CD40.

Data set [7] relates to Human dendritic cells. Put plainly: CD80 levels at the DC cell surface (flow cytometry). The conditions noted are these: 100 μg, 48 hours. On the procedure: as §1
DC from individuals B and C were seeded in 1.0 ml at 1.0×10^5 cells/ml in 6-well flat-bottomed tissue culture plates for 48 hours with 100 μg of 6 base N1A, N1B, N2A, N2B, N3A, N3B, N4A, N4B, N5A, N5B, N6A, N6B, N7A or N7B polynucleotides. The level of CD80 at the cell surface was determined after 48 hours of incubation by flow cytometry using a FITC-conjugated monoclonal antibody directed to CD80 (Serotec, Oxford, U.K.) and analyzed by CELLQuest. Results are expressed as the percentage of CD80^hi DC following treatment.

In data set [8] the test system is Human dendritic cells. Put plainly: CD86 levels at the DC cell surface (flow cytometry). The conditions noted are these: 100 μg, 48 hours. On the procedure:
as §1
DC from individuals B and C were seeded in 1.0 ml at 1.0×10^5 cells/ml in 6-well flat-bottomed tissue culture plates for 48 hours with 100 μg of 6 base N1A, N1B, N2A, N2B, N3A, N3B, N4A, N4B, N5A, N5B, N6A, N6B, N7A or N7B polynucleotides. The level of CD86 at the cell surface was determined after 48 hours of incubation by flow cytometry using a PE-conjugated monoclonal antibody directed to CD86 (Serotec) and analyzed by CELLQuest Pro. Results are expressed as the percentage of CD86^hi DC following treatment.

Data set [9] concerns Human dendritic cells. Description: MHC-II levels at the DC cell surface (flow cytometry). To be noted: DC from individual B; 100 μg, 48 hours. As to the method:
as §1
DC from individual B were seeded in 1.0 ml at 1.0×10^5 cells/ml in 6-well flat-bottomed tissue culture plates for 48 hours with 100 μg of 6 base N1A, N1B, N2A, N2B, N3A, N3B, N5A, N5B, N6A, N6B, N7A or N7B polynucleotides. The level of MHC II at the cell surface was determined after 48 hours of incubation by flow cytometry using a FITC-conjugated monoclonal antibody directed to MHC II (Serotec) and analyzed by CELLQuest Pro. Results are expressed as the percentage of MHC II^hi DC following treatment.

In data set [10] the test system is Human dendritic cells. Put plainly: Endocytosis of FITC-dextran by DC. To be noted: DC from individual B, 100 μg, 24 hours, untreated control = 100. As to the method: as §1
DC from individual B were seeded in 1.0 ml at 1.0×10^5 cells/ml in 6-well flat-bottomed tissue culture plates for 24 hours with 1 mg/ml of FITC-dextran (20 kDa; Sigma-Aldrich) in the absence or presence of 100 μg of 6 base N2A, N2B, N3A, N3B, N5A, N5B, and N6B polynucleotides at 4° C. (control cell surface binding of FITC-dextran) and 37° C. (to assess endocytosis). Cells were washed three times with ice-cold phosphate buffered saline and analyzed by flow cytometry using CELLQuest Pro. Results are expressed as relative endocytic rate (normalized Δ Mean Fluorescence Value (Δ MFV)). Δ MFV=MFV of DC exposed to FITC-dextran at 37° C.−MFV of DC exposed to FITC-dextran at 4° C. Δ MFV=(ΔMFVsequence/ΔMFVcontrol)×100.

Where [11] appears, read: +GM-CSF (500 units human recombinant).

Marks after values point to notes of the source that are not given here.

For the substance “5′GGGCGG3′ [N7A] (DNA, all phosphodiester, methylation of C not given here)”, the “Percentage of DC showing a FCS > 500 units and a SSC > 400 units” value was found to be 8% in data set [1] (DC isolated from individual A) and 30% in data set [1] (DC isolated from individual C). Also, the “IL-1beta production by DC (fold increase compared to untreated DC)” value is recorded as 1.1 fold in [2] (DC isolated from individual A) and 1.0 fold in data set [2] (DC isolated from individual C). Also, the “IL-12 production by DC (fold increase compared to untreated DC)” value in data set [3] (DC isolated from individual A) is listed as 1.0 fold; in data set [3] (DC isolated from individual C) it was 0.9 fold. The “IFN-gamma production by DC (fold increase compared to untreated DC)” value in [4] (DC isolated from individual A) and in data set [4] (DC isolated from individual C) was 1.0 fold in each case. In addition, the “IL-12 production by DC from the individual B (fold increase compared to untreated DC)” value worked out at 11.7 fold in [5] (setting [11]) and 9.6 fold in [5] (w/o GM-CSF). In data set [6] (DC from individual C), the “The percentage of CD40^hi DC following treatment” value came out at 23%. Further, the “The percentage of CD80^hi DC following treatment” value in [7] (DC from individual B) is recorded as 23** %; in [7] (DC from individual C) it was 22** %. For the same substance, the “The percentage of CD86^hi DC following treatment” value in [8] (DC from individual C) is given as 34%. In addition, the “The percentage of MHC-II^hi DC following treatment” value in [9] is listed as 21%.

For 5′GGTGGG3′ [N2B], the results for the “Percentage of DC showing a FCS > 500 units and a SSC > 400 units” value in data set [1] (DC isolated from individual A), in [1] (DC isolated from individual B) and in [1] (DC isolated from individual C) were 42%, 38% and 50%, respectively. In addition, the results for the “IL-1beta production by DC (fold increase compared to untreated DC)” value in data set [2] (DC isolated from individual A), in data set [2] (DC isolated from individual B) and in [2] (DC isolated from individual C) were 1.2 fold, 1.4 fold and 1.0 fold, respectively. Moreover, the “IL-12 production by DC (fold increase compared to untreated DC)” value in data set [3] (DC isolated from individual A) is 1.3 fold; in data set [3] (DC isolated from individual B) it was 6.0 fold; in data set [3] (DC isolated from individual C), 2.5 fold. In addition, the “IFN-gamma production by DC (fold increase compared to untreated DC)” value in data set [4] (DC isolated from individual A) is given as 1.2 fold; in data set [4] (DC isolated from individual B) it was 1.2 fold; in data set [4] (DC isolated from individual C), 1.0 fold. For the same substance, the “The percentage of CD40^hi DC following treatment” value in [6] (DC from individual B) is 22%; in data set [6] (DC from individual C), 37** %. For the same substance, the “The percentage of CD80^hi DC following treatment” value in data set [7] (DC from individual B) is recorded as 7%; in data set [7] (DC from individual C), 8%. Besides, the “The percentage of CD86^hi DC following treatment” value in data set [8] (DC from individual B) is given as 31** %; in data set [8] (DC from individual C), 53** %. Besides, the “The percentage of MHC-II^hi DC following treatment” value in [9] came out at 30%. Further, the “Relative endocytic rate (normalized Δ MFV)” value in [10] worked out at 148.

With 5′GTGTGT3′ [N1A], the “Percentage of DC showing a FCS > 500 units and a SSC > 400 units” value amounted to 6% in [1] (DC isolated from individual A), 9% in [1] (DC isolated from individual B) and 18% in data set [1] (DC isolated from individual C). Further, the “IL-1beta production by DC (fold increase compared to untreated DC)” value is recorded as 1.0 fold in data set [2] (DC isolated from individual A), 1.2 fold in data set [2] (DC isolated from individual B) and 1.0 fold in data set [2] (DC isolated from individual C). The figures for the “IL-12 production by DC (fold increase compared to untreated DC)” value in [3] (DC isolated from individual A), in data set [3] (DC isolated from individual B) and in [3] (DC isolated from individual C) were 15.9 fold, 17.8 fold and 2.1 fold, respectively. Further, the “IFN-gamma production by DC (fold increase compared to untreated DC)” value was found to be 0.8 fold in data set [4] (DC isolated from individual A), 1.0 fold in data set [4] (DC isolated from individual B) and 1.0 fold in [4] (DC isolated from individual C). Moreover, the entries for the “IL-12 production by DC from the individual B (fold increase compared to untreated DC)” value in [5] (setting [11]) and in [5] (w/o GM-CSF) were 15.3 fold and 14.7 fold, respectively. Further, the results for the “The percentage of CD40^hi DC following treatment” value in data set [6] (DC from individual B) and in data set [6] (DC from individual C) were 21% and 24** %, respectively. For the same substance, the “The percentage of CD80^hi DC following treatment” value is on record as 45** % in [7] (DC from individual B) and 41** % in data set [7] (DC from individual C). Besides, the “The percentage of CD86^hi DC following treatment” value in data set [8] (DC from individual B) came to 10%; in data set [8] (DC from individual C), 14%. The “The percentage of MHC-II^hi DC following treatment” value in [9] is given as 32** %.
